In patent US20260138961A1, “MODULATORS OF MITOCHONDRIAL DNA REPLICATION” (Pretzel Therapeutics, Inc., priority 2022, published 2026):

Target: T1, POLγ W748S + E1143G (Homo sapiens, UniProt P54098, E1143G/W748S)
T1 sequence (P54098 1-1239 W748S/E1143G): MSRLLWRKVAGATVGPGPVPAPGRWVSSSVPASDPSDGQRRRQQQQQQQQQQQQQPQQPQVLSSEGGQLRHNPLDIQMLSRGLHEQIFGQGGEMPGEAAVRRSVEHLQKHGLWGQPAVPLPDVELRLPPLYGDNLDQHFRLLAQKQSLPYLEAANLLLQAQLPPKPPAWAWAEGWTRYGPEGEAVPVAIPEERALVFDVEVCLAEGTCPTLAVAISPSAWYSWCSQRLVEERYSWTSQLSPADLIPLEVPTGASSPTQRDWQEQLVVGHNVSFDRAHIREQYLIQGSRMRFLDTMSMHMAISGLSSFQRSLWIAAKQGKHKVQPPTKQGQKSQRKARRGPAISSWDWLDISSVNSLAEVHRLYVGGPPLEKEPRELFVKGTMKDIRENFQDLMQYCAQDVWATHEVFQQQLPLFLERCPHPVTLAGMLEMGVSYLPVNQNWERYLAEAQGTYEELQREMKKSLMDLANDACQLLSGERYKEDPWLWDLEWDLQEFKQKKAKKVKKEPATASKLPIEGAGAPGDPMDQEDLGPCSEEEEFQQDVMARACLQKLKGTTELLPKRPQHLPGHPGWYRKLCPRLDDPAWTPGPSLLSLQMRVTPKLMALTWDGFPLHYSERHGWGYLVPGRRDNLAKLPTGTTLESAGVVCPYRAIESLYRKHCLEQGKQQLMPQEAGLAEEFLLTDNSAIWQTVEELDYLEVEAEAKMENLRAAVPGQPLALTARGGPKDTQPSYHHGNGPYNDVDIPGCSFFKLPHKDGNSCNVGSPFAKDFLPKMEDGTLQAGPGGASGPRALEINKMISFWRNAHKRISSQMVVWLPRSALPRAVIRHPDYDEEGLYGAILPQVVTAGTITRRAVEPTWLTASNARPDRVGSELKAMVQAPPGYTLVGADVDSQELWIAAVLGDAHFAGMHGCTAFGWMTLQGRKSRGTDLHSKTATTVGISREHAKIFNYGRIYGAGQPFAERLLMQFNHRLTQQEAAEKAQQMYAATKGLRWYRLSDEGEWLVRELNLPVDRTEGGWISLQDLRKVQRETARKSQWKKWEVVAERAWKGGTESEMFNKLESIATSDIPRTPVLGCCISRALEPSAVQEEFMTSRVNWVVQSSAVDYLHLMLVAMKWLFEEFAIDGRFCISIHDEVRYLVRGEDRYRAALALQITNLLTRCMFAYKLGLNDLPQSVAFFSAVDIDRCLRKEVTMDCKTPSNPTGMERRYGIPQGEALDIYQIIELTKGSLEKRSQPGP
T1 sequence (Q9UHN1 1-485 partner): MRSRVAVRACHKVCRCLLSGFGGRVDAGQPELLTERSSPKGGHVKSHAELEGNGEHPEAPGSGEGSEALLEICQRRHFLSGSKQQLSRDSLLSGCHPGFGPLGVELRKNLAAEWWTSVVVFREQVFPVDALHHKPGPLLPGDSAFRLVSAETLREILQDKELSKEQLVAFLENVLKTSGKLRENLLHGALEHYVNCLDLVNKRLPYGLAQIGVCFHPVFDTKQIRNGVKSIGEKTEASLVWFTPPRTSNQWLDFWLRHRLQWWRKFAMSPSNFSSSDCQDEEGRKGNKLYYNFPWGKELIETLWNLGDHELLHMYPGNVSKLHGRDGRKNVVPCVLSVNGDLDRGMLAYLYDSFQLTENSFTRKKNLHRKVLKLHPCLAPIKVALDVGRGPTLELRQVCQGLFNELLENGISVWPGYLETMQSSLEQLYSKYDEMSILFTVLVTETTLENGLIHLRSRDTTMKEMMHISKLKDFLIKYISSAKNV
Experiment: DNA polymerization assay, W748S + E1143G mutant
Format: biochemical
Conditions: stimulation of polymerase activity, primed M13mp18 ssDNA, 37° C. 2 hours
Description: DNA Polymerization Assay to Monitor Effects on Human Wildtype POLγ and Four Disease-Causing Mutant Variants of Human POLγ.
The ability of small molecules to stimulate the polymerase activity of POLγ was analyzed in a quantitative fluorescence SYBR Green I assay with fluorescence intensity (FI) readout.
In the presence of dNTPs, wild type human POLγ and mutant derivatives thereof were incubated with single-stranded, circular M13mp18 ssDNA hybridized to a short DNA oligonucleotide that functions as a primer for initiation of DNA synthesis. POLγ and mutant derivatives thereof will extend the primer and use the M13mp18 molecule as a template to synthesize long stretches of double-stranded DNA. SYBR Green I, which is a double-stranded DNA-binding dye, was used to quantify formation of double-stranded DNA in the reaction. When bound to double-stranded DNA, SYBR Green I fluorescence increases by up to 100-fold.
The assay was performed in the 384-well plate format. Upon addition of compounds, changes in double-stranded DNA synthesis activity can be monitored by following effects on fluorescent intensity.
The reactions also contained the accessory POLγB subunit, and the human mitochondrial single-stranded DNA binding protein (mtSSB).
The DNA template mixture used in the assay contained 0.5 nM primed M13 mp18 ssDNA, 400 nM mtSSB, 0.1 mM Tris-HCl (pH 8.0), 0.1 mM dNTP, 10 mM MgCl2, 0.1 mg/mL BSA, 1 mM TCEP solution, and 0.02% Triton X-100. The DNA template mixture for the wild type protein contained either 100 μM dNTP, 1 μM dNTP, or 0.1 μM dNTP, designated in Table 2 as 100 μM, 1 μM, and 0.1 μM, respectfully.
Microplates with compounds (0.1 μL in each well) to be tested in the assay were prepared from 10 mM compound stocks in 100% DMSO, and equal amounts of DMSO without any compound were added to positive and negative control wells.
The protein mixture was dispensed (5 μL into each well) into compound plates and incubated at 37° C. for 15 minutes. After incubation, 5 μL of the DNA template mixture was dispensed into each well. The plates were then incubated at 37° C. for 2 hours.
During incubation, a combined stop buffer and detection reagent solution was prepared. The buffer contained 25 mM EDTA (pH 8.0), 0.02% Triton X-100, and SYBR Green I [Invitrogen] diluted 10,000× (for fluorescent readout). EDTA will stop the enzymatic reaction by chelating magnesium ions.

AC50	Compound
> 100 µM	Cc1cnc(-c2cc(NS(=O)(=O)c3cc(C)c(Cl)cc3C)ccc2C)s1 [Example 103, 4-chloro-2,5-dimethyl-N-(4-methyl-3-(5-methylthiazol-2-yl)phenyl)benzenesulfonamide]
4 µM	Cc1cc(S(=O)(=O)Nc2cc(F)cc(C(=O)N3CCC[C@H]3C)c2)c(C)cc1Cl [Example 13, (R)-4-chloro-N-(3-fluoro-5-(2-methylpyrrolidine-1-carbonyl)phenyl)-2,5-dimethylbenzenesulfonamide]
2 µM	Cc1cc(S(=O)(=O)Nc2cccc(C(=O)N3CCC[C@H]3C)c2)c(C)cc1Cl [Example 10, (R)-4-chloro-2,5-dimethyl-N-(3-(2-methylpyrrolidine-1-carbonyl)phenyl)benzenesulfonamide]
19 µM	Cc1cc(S(=O)(=O)Nc2cccc(C(=O)NCc3ccccc3)c2)c(C)cc1Cl [Example 11, N-benzyl-3-((4-chloro-2,5-dimethylphenyl)sulfonamido)benzamide]
2 µM	Cc1cc(S(=O)(=O)Nc2cccc(-c3ncc(C#N)s3)c2)c(C)cc1Cl [Example 96, 4-chloro-N-(3-(5-cyanothiazol-2-yl)phenyl)-2,5-dimethylbenzenesulfonamide]
> 100 µM	Cc1cnc(-c2ccc(C)c(NS(=O)(=O)c3cc(C)c(Cl)cc3C)c2)s1 [Example 98, 4-chloro-2,5-dimethyl-N-(2-methyl-5-(5-methylthiazol-2-yl)phenyl)benzenesulfonamide]
